# Assay: Human HepG2 cell viability assay in 384 well format
# Type: toxicity, cell-based
# Set-up: dose 125 nL, time 70.5 hour; concentration not given beside the values
# Conditions: HepG2 cells, read-out: Inhibition
row,SMILES,cytotoxicity at 70.5 h
1,COc1ccc(Oc2ncccc2NC(=O)N2CCOC(C)C2)cc1 (configuration not stated),-5.19%
2,O=C(c1ccoc1)N1CC[C@H]2C[C@@H](c3ccncn3)O[C@@H]2C1,4.08%
3,CCOCc1nc2c(c(N(C)Cc3nonc3C)n1)CCNCC2,-11.4%
4,Cc1cc(-c2ccccc2C(=O)O)nc(C2CCCN2S(C)(=O)=O)n1 (configuration not stated),-1.81%
5,O=C(NC1CC1)C1CCc2nnc(-c3cccnc3)n21 (configuration not stated),-7.6%
6,CC(C)COCC1CN(Cc2ccco2)Cc2ncn(C)c21 (configuration not stated),-6.93%
7,CNC(=O)c1ccc(C(=O)N2CCCC2c2c(C)nn(C)c2C)cn1 (configuration not stated),-4.27%
8,CO[C@@H]1CCN(C2CCOCC2)C[C@@H]1Cc1ccccc1,-11.8%
9,Cc1ccc(N(C)C2CCN(C(=O)c3n[nH]c4c3CCC4)CC2)nn1,-3.25%
10,Cc1cnn(CC2CN(Cc3nc4cccnc4[nH]3)CCO2)c1 (configuration not stated),7.51%
11,COc1ccc(OCC(=O)NC(C)c2ccccc2)c(C(=O)O)c1 (configuration not stated),-7.12%
12,COCCN(C)C[C@@H]1CN(C(=O)c2ccc(OC)c(F)c2)C[C@@H]1CO,-7.53%
13,CC(C)(C)c1cn2nc(N3CCCCC3Cn3cncn3)sc2n1 (configuration not stated),4.02%
14,COCCCNS(=O)(=O)c1cc(Br)sc1C,-6.02%
15,Cc1cc(NCCNS(=O)(=O)c2cn(C)nc2C)c2ccccc2n1,13.5%
16,Cc1ccccc1CS(=O)(=O)CC(=O)NCc1ccccc1F,4.2%
17,CCCC(=O)NS(=O)(=O)c1ccc(C#N)c(C(F)(F)F)c1,1.39%
18,CNS(=O)(=O)c1ccc(CNC(=O)c2ccccn2)cc1,-9.5%
19,NC(=O)c1cc2c(nc1N)CCN(C(=O)C1CCCCC1)C2,7.07%
20,CC(C)Oc1ncccc1CNC(=O)c1ccco1,1.27%
21,C=C(C)CN(CC)Cc1nc(CC)no1,-8.43%
22,CCCSc1ncc(-c2nccn2CCO)cn1,-12.8%
23,Cn1ccnc1COc1ccc(CSc2nncn2C2CC2)cc1,-8.64%

row,SMILES,cytotoxicity at 70.5 h
1,Cc1cc(NC(=O)N(C)C2CCCN(c3ccccc3)C2=O)n(C)n1 (configuration not stated),-2.17%
2,CCN1C(=O)[C@H]2CN(CC(C)C)C[C@H]2C12CCN(C(=O)NC(C)C)CC2,-1.18%
3,COCC1c2nnn(C)c2CCN1C(=O)COc1ccccc1OC (configuration not stated),1.52%
4,Cc1c[nH]c(C(=O)N2CCCC2c2ccc(C(=O)N3CCSCC3)s2)n1 (configuration not stated),-11.4%
5,CCc1ccc(CNC(=O)CCNc2ncccn2)s1,-13.5%
6,CN1CCC(NC(=O)C2CN(c3cncnc3)CCO2)CC1 (configuration not stated),-7.93%
7,Cc1cc(C(=O)N[C@H]2CC[C@@]3(CCC(=O)N3)CC2)no1,-6.09%
8,COc1ncccc1CNC(=O)NCCNC(=O)c1ccco1,0.312%
9,Cc1ccc(-c2nc(CN3CCc4nn(C)c(=O)cc4C3)no2)cc1,-15.2%
10,Cc1ccc(NC2CCN(C(=O)c3sccc3C3CC3)CC2)nn1,-8.46%
11,COc1ccc(C(C)NC(=O)NCCCn2cncn2)cc1F (configuration not stated),-4.51%
12,CCN(CC(=O)NC(C)C)S(=O)(=O)N1CCCCCC1,-5.99%
13,CCOc1ccc(CN2CCOCC2c2[nH]ncc2C)cc1CO (configuration not stated),-2.3%
14,CN1CCN(S(=O)(=O)c2ccc3c(c2)CN(C(=O)C(C)(C)C)CC3)CC1,-2.56%
15,COCCNc1cc(-c2cccc(C(=O)O)c2C)c2cc[nH]c2n1,-11.2%
16,COc1cccn(CC(=O)N2CCCC3(CCCO3)CC2)c1=O (configuration not stated),-7.92%
17,CC(c1ccncc1)N(CCN(C)C)C(=O)Nc1ccc(Cl)cc1 (configuration not stated),-14.7%
18,CN(C(=O)CSc1ncc[nH]1)C1CC1,-3.27%
19,N#Cc1c(N)nc2c(c1C1CCOC1)CCc1cc(O)ccc1-2 (configuration not stated),-11.5%
20,COc1cccc(CN(C)C(=O)CN2CC(n3nc(C)cc3C)C2)c1,-1.82%
21,O=C1CC(N(C(=O)CCc2cc(F)ccc2F)C2CC2)C(=O)N1 (configuration not stated),-7.39%
22,O=C(c1cccs1)N1CCC2(CC1)CN(c1cncnc1)C(=O)CO2,-12.3%
23,CCN1CC(CN(C)c2cc(C)nc(N)n2)Oc2ccccc21 (configuration not stated),17.6%

row,SMILES,cytotoxicity at 70.5 h
1,O=C(O)c1ccc(=O)n(CC(c2ccc(Cl)cc2)N2CCCCCC2)c1 (configuration not stated),-8.13%
2,O=C1CC(c2ccsc2)c2sc(C(=O)O)c(-c3ccc(F)cc3)c2N1 (configuration not stated),-4.46%
3,CO[C@@H]1c2ccccc2C2(CCN(C(=O)CNC(=O)C(C)C)CC2)[C@H]1O,-6.67%
4,Cc1nc(NCc2cccc(F)c2)cc(C2CCNCC2)n1,0.802%
5,CN1CCCN(C[C@@H]2CN(C(=O)N3CCOCC3)C[C@@H]2CO)CC1,-3.11%
6,O=C(CN1CCCCCC1=O)NC1CCc2nccn2C1 (configuration not stated),-8.44%
7,COc1ccccc1C(C)(C)NC(=O)c1cc(NC(C)=O)ccc1F,-6.53%
8,CCn1c(C2CCCN(Cc3ccc4ccccc4n3)C2)nn(C)c1=O (configuration not stated),-3.7%
9,CCS(=O)(=O)CCNC(=O)NCc1ccccc1-n1cccn1,2.95%
10,CN(c1ncccc1C#N)C1CCN(CCc2ccccn2)CC1,13.7%
11,CCOc1cccc2c1OCC(C(=O)NS(=O)(=O)c1cccs1)=C2,-9.43%
12,CNc1cc(C2CCCN2C(=O)c2ccc3oc(=O)n(C)c3c2)ccn1 (configuration not stated),-12.4%
13,COCCNC(=O)[C@H]1CN(Cc2nccs2)C[C@H]2OCC[C@@H]12,-2.35%
14,CS(=O)(=O)N1Cc2ccccc2CC2(CCN(Cc3ccccc3)C2)C1 (configuration not stated),-9.03%
15,CC(C(=O)NCc1ccnc(N2CCCC2)c1)n1cccn1 (configuration not stated),-10.3%
16,CN(C)C(=O)NC[C@@H]1OC[C@H]2CN(Cc3cccc(F)c3)CC[C@H]21,-6.1%
17,c1ccc(OCCCNCc2cccs2)nc1,10.1%
18,N#Cc1ccc(S(=O)(=O)NC(=O)COc2ccc3c(c2)CCC3)cc1,-1.54%
19,Cc1nn(C)c(N2CCOCC2)c1CNC1CCc2cc(F)ccc21 (configuration not stated),-19.2%
20,COCCc1noc(Cn2ccc3ncccc3c2=O)n1,-7.6%
21,O=C(c1ccccc1)N1CC[C@H]2C[C@@H](c3nccs3)O[C@@H]2C1,-17.1%
22,CC(C(=O)O)n1nc(C(F)(F)F)c(Br)c1C1CC1 (configuration not stated),-14%
23,CN(C)C(=O)COCC1CN(Cc2ccsc2)Cc2nccn2C1 (configuration not stated),-7.22%

row,SMILES,cytotoxicity at 70.5 h
1,CCOc1ccc(C(=O)CCC(=O)N(C)Cc2snnc2C)cc1C,-7.49%
2,CNS(=O)(=O)c1cccc(C(C)NCc2ccc(F)cc2F)c1 (configuration not stated),-9.82%
3,COCCN1CCC(c2cncc(-c3ccccc3C)n2)CC1,-4.28%
4,Cc1ncc(-c2ccnc(N3CCCCC3)n2)c(=O)[nH]1,-7.09%
5,CCCn1cc(Cl)c(C(=O)N2C[C@H]3C[C@H](OC)C[C@H]3C2)n1,3.23%
6,CC(C)CC(=O)N1CCCCC(NC(=O)CCc2cccnc2)C1 (configuration not stated),-1.04%
7,CCOc1ccc(CN2CCN(C(=O)c3cc(C4CC4)[nH]n3)CC2)cc1,-2.02%
8,COCC1CN(Cc2ccc(C)o2)Cc2nnn(C)c21 (configuration not stated),-0.755%
9,CC(C)NC(=O)N1CCC2(CCC(=O)N2CCN(C)C)CC1,-8.1%
10,Cc1ccc(-c2nc(C(=O)N(C)CC(=O)N3CCCC3)cs2)c(C)c1,-4.38%
11,N#CCCN1CC(O)CN(C(=O)c2cccc(C(F)(F)F)c2)CC1=O (configuration not stated),-1.43%
12,Cc1ccsc1CNC(=O)CCc1c(C)nc2cc(O)nn2c1C,-10.8%
13,COCCCSc1ccc(NC(=O)Nc2cn[nH]c2)cc1,18.2%
14,O=C(c1cc(-c2ccn(CC3CC3)n2)n2ccccc12)N1CCCO1,-3.08%
15,COc1ccc(NC(=O)N2CCCC2c2ccncc2)cn1 (configuration not stated),-11.6%
16,Cc1cc(C)c(CNc2cnc3ccccc3n2)c(=O)[nH]1,59.4%
17,O=S(=O)(NCCCn1cncn1)c1ccc2c(c1)CCC2,-5.6%
18,CC(C)CN1CCC(NC(=O)c2ccc(F)cc2Cl)CC1,-2.96%
19,c1ccc(Cc2nc(CNC3CCOC4(CCOCC4)C3)no2)cc1 (configuration not stated),-13.7%
20,COc1ccc(CN2CCCCCC2c2cccs2)c(O)c1 (configuration not stated),-7.17%
21,CCN1C(=O)C(c2ccccc2)CC12CCN(Cc1cccnc1)CC2 (configuration not stated),-7.6%
22,CC(C)(C)C(=O)NCCC1CN(Cc2ccccc2F)CCO1 (configuration not stated),-9.52%
23,CCNC(=O)N1C[C@@H]2OCC(=O)N(C)[C@@H]2C1,7.93%

row,SMILES,cytotoxicity at 70.5 h
1,Cc1nc2c(NCC(C)N(C)c3ccccc3)ncnc2o1 (configuration not stated),-5.13%
2,O=C(O)c1cc(-c2cncnc2)cc(S(=O)(=O)N2CCCCCC2)c1,-10.5%
3,Cc1nc(C)n(CC2CCCN(Cc3ccc(C(N)=O)cc3)C2)n1 (configuration not stated),-4.6%
4,CN(C)C(=O)[C@H]1C[C@H]2OCC[C@H]2N(Cc2ccc3c(c2)OCO3)C1,0.648%
5,Cc1ccc(F)c(OC2(C(=O)O)CCN(C(=O)c3ccco3)CC2)c1,-7.46%
6,Cc1ccccc1C(=O)N1CCC(n2nnc3cc(F)ccc32)CC1,-12.1%
7,COc1cccc2c1OCC(CNC(=O)Cc1csc(C(C)=O)c1)C2 (configuration not stated),14.4%
8,Cc1cc(F)ccc1OC1(C(=O)O)CCN(Cc2ccncc2)CC1,-8.64%
9,CCCc1nc(C)c(C(=O)NCCn2nc3ccccn3c2=O)s1,19.2%
10,O=C(C1CCOCC1)N1CCc2onc(COc3cccnc3)c2C1,0.0469%
11,CC1(C)O[C@@](C)([C@H]2CC3(CCN(c4cnccn4)CC3)CO2)CC[C@@H]1O,1.78%
12,CC(C)N(C)CCCNC(=O)c1cnc(-c2ccccc2)nc1,2.52%
13,CC[C@@]1(O)CCN(c2ncc(Cl)cc2F)C[C@H]1O,-13.4%
14,O=C(C1COc2ccccc2O1)N1Cc2cnn(CCO)c2C1 (configuration not stated),-3.6%
15,Cc1ccc(CC2CCCN2CC(=O)NCc2ccccn2)cc1 (configuration not stated),15.4%
16,CO[C@H]1CN(Cc2c(C)ccc3ncccc23)CC[C@H]1N,2.94%
17,CCCS(=O)(=O)N1CCCN(CCCOC)CC1,8.01%
18,Cc1ccsc1C(=O)N1CCC(Nc2cccnc2)CC1,-4.2%
19,O=C(CC1CC1)N[C@@H]1CN(Cc2ccc(F)cc2)C[C@@H]2CCCO[C@@H]21,-3.12%
20,CCN1C(=O)CC[C@]12CC[C@@H](NC(=O)c1ccncc1F)CC2,-6.51%

# From ChEMBL document CHEMBL3507680, “University of Dundee, Gates Library screen for HepG2 cell viability”
